A melting point of 196 to 197.6 °C was found for `O=C(CCc1ccc(NC2=NCCN2)cc1)c1ccc(N2CCOCC2)cc1` [Example 3, 3-[4-(4,5-Dihydro-1H-imidazol-2-ylamino)phenyl]-1-(4-morpholin-4-ylphenyl)-propan-1-one] in this work.

A melting point of 150 to 151.2 °C was found for `CCOC(=O)N1CCN(c2ccc(C(=O)CCc3ccc(NC4=NCCN4)cc3)cc2)CC1` [Example 5, 3-[4-(4,5-Dihydro-1H-imidazol-2-ylamino)phenyl]-1-[4-(4-ethoxycarbonyl-piperazin-1-yl)phenyl]propan-1-one] in this work.

From patent US6417186B1, “Substituted-phenyl ketone derivatives as IP antagonists” (Syntex (U.S.A.) LLC, priority 2000, dated 2002)
